Experiment [1] deals with T1, arginase II (ARG II) (Homo sapiens, UniProt P78540).
T1 sequence (P78540 23-354): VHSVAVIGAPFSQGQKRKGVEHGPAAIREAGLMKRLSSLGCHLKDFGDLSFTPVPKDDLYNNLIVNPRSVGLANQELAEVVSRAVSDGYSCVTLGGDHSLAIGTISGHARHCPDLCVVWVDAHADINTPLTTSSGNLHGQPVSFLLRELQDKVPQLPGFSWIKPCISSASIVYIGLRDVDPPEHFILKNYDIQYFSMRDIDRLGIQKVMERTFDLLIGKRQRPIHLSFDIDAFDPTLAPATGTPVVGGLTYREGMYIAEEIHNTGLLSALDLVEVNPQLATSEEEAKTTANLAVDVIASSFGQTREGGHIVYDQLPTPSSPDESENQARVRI
The experiment in a line: Inhibition of arginase II, spectrophotometric urea assay at 530 nm.

Experiment [2] deals with T2, human-Arginase-1 (Homo sapiens, UniProt P05089).
T2 construct: expressed in transfected cells; host or cells: CHOK cells
T2 sequence (P05089 1-322): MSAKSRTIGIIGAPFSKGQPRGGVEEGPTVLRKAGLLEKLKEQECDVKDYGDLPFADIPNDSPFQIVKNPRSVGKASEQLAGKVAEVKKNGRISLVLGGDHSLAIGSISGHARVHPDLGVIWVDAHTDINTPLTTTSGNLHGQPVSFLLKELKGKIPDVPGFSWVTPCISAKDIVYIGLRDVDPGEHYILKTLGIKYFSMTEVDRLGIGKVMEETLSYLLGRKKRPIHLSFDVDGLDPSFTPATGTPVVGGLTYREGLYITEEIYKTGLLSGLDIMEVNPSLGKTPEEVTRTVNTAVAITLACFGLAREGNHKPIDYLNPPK
The experiment in a line: Urea production in CHOK cells stably transfected with human-Arginase-1. The format is cell-based. The conditions noted are these: IC50 class, 5 mM arginine, 24 hours, read-out: CHOK Cell. On the procedure:
Table 3 also provides CHOK cell based IC50 values for illustrative arginase inhibitors. IC50 values were determined by measuring the production of urea in CHOK cells stably transfected with human-Arginase-1.
Briefly, CHOK cells were stably transfected with human-arginase-1. To determiner the IC50 values for compounds in accordance with the present invention, parental CHOK cells and arginase-1 stably transfected cells were plated in a 96 well plate. Cells were plated using 200 μl of complete growth medium and incubated overnight at 37° C.
Media from each of the wells containing cells was first removed and growth media supplemented with arginine at a concentration of 5 mM was added to each well. The test compounds were dissolved in PBS buffer to the desired concentration and added to appropriate wells. The plate was then incubated at 37° C. for 24 hours. After 24 hours the plates were spun down at 3000 RPM for 5 min and 50 μl of the media were transferred to a new plate.
An aqueous solution of o-phthaldehyde, Brij, sulfuric acid, primaquine diphosphate and boric acid was added to each well and the plate was incubated for 10-15 minutes. The urea concentration in each well was determined by measuring the optical density at 520-530 nanometers using a standard curve. The IC50 values were calculated by measuring urea production at various concentrations of the inventive arginase inhibitors after subtracting the value related to the concentration of urea in control wells.

Experiment [3] deals with T3, human arginase I (ARG I) (Homo sapiens, UniProt P05089).
T3 sequence (P05089 1-322): T2 sequence (P05089 1-322)
The experiment in a line: Inhibition of arginase I, spectrophotometric urea assay at 530 nm.

For `NC(CCCCB(O)O)(C(=O)O)[C@H]1C[C@@H](NCc2ccc(-c3ccc(Cl)cc3)c(F)c2F)C1` (mixture of isomers) [Example 50, (S)-2-amino-6-borono-2-((1s,3R)-3-((4′-chloro-2,3-difluorobiphenyl-4-yl)methylamino)cyclobutyl)hexanoic acid], the figures for the IC50 in experiment [1], in experiment [2] and in experiment [3] were 26 to 100 nM, 1000 to 25000 nM and 0.1 to 25 nM, respectively.
In the same order, the values of `NC(CCCCB(O)O)(C(=O)O)[C@H]1C[C@@H](NCc2ccc3c(c2)CCO3)C1` (stereo partly drawn) [Example 15, (S)-2-amino-6-borono-2-((1s,3R)-3-((2,3-dihydrobenzofuran-5-yl)methylamino)cyclobutyl)hexanoic acid] are 26 to 100 nM, 1000 to 25000 nM and 26 to 100 nM.
In the same order, the values of `NC(CCCCB(O)O)(C(=O)O)[C@H]1C[C@@H](NCc2ccc(-c3ccc(F)cc3)cc2)C1` (stereo partly drawn) [Example 19, (S)-2-amino-6-borono-2-((1s,3R)-3-((4′-fluorobiphenyl-4-yl)methylamino)cyclobutyl)hexanoic acid] are 26 to 100 nM, 26000 to 100000 nM and 0.1 to 25 nM.
Consider `CNC(CCCCB(O)O)(CCNCc1ccc(Cl)c(Cl)c1)C(=O)O` (stereo not drawn) [Example 35, 6-borono-2-(2-(3,4-dichlorobenzylamino)ethyl)-2-(methylamino)hexanoic acid], for which the IC50 in experiment [1] lay in the range of 101 to 500 nM; in experiment [2], 26000 to 100000 nM; in experiment [3], 101 to 500 nM.
Take `NC(CCCCB(O)O)(C(=O)O)C1CC2CCC(C1)N2Cc1ccccc1` (stereo not drawn) [Example 62, 2-amino-2-(8-benzyl-8-azabicyclo[3.2.1]octan-3-yl)-6-boronohexanoic acid]: the IC50 in experiment [1] was in the range of 26 to 100 nM; in experiment [2] it was 1000 to 25000 nM; in experiment [3], 0.1 to 25 nM.
Taken in the same sequence, the figures for `NC(CCCCB(O)O)(C(=O)O)[C@H]1C[C@@H](NCc2cccc(-c3ccc(Cl)cc3)c2)C1` (stereo partly drawn) [Example 9, (S)-2-amino-6-borono-2-((1s,3R)-3-((4′-chlorobiphenyl-3-yl)methylamino)cyclobutyl)hexanoic acid] were 0.1 to 25 nM, 26000 to 100000 nM and 0.1 to 25 nM.
As for `NC(CCCCB(O)O)(C(=O)O)[C@H]1C[C@@H](NC2Cc3ccccc3C2)C1` (stereo partly drawn) [Example 5, (S)-2-amino-6-borono-2-((1s,3R)-3-(2,3-dihydro-1H-inden-2-ylamino)cyclobutyl)hexanoic acid], the IC50 fell in the range of 26 to 100 nM in experiment [1], 1000 to 25000 nM in experiment [2] and 0.1 to 25 nM in experiment [3].
Turning to `NC(CCCCB(O)O)(C(=O)O)[C@H]1CC[C@@H](NCc2ccc(-c3ccccc3)cc2)C1` (stereo partly drawn) [Example 44], the IC50 fell in the range of 26 to 100 nM in experiment [1], 26000 to 100000 nM in experiment [2] and 26 to 100 nM in experiment [3].
As for `NC(CCCCB(O)O)(C(=O)O)C1CC2CCC(C1)N2Cc1ccc(F)c(F)c1` (stereo not drawn) [Example 63, 2-amino-6-borono-2-(8-(3,4-difluorobenzyl)-8-azabicyclo[3.2.1]octan-3-yl)hexanoic acid], the figures for the IC50 in experiment [1], in experiment [2] and in experiment [3] were 26 to 100 nM, 1000 to 25000 nM and 0.1 to 25 nM, respectively.
On to `NC(CCCCB(O)O)(C(=O)O)[C@H]1C[C@@H](NCc2ccc(-c3ccc(F)cc3)c(F)c2)C1` (mixture of isomers) [Example 53, (S)-2-amino-6-borono-2-((1s,3R)-3-((2,4′-difluorobiphenyl-4-yl)methylamino)cyclobutyl)hexanoic acid], for which the values for the IC50 in experiment [1], in experiment [2] and in experiment [3] were 26 to 100 nM, 26000 to 100000 nM and 0.1 to 25 nM, respectively.
Taken in the same sequence, the figures for `NC(CCCCB(O)O)(C(=O)O)[C@H]1C[C@@H](N(Cc2ccccc2)Cc2ccccc2)C1` (stereo partly drawn) [Example 27, (S)-2-amino-6-borono-2-((1s,3R)-3-(dibenzylamino)cyclobutyl)hexanoic acid] were 501 to 1500 nM, 26000 to 100000 nM and 101 to 500 nM.
In the same order, the values of `NC(CCCCB(O)O)(C(=O)O)C1CC2CCC(C1)N2` (stereo not drawn) [Example 61, 2-amino-2-(8-azabicyclo[3.2.1]octan-3-yl)-6-boronohexanoic acid] are 26 to 100 nM, 1000 to 25000 nM and 26 to 100 nM.
Take `CNC(CCCCB(O)O)(CCN1CCC(c2ccccc2)CC1)C(=O)O` (stereo not drawn) [Example 36, 6-borono-2-(methylamino)-2-(2-(4-phenylpiperidin-1-yl)ethyl)hexanoic acid]: the IC50 fell in the range of 101 to 500 nM in experiment [1], 1000 to 25000 nM in experiment [2] and 101 to 500 nM in experiment [3].
For `CCN(CC)CC[C@](N)(CCCCB(O)O)C(=O)O` [Example 68, (R)-2-amino-6-borono-2-(2-(diethylamino)ethyl)hexanoic acid], the IC50 in experiment [1] is 101 to 500 nM; in experiment [2], 1000 to 25000 nM; in experiment [3] it was 101 to 500 nM.
In the case of `CCN(CCO)CC[C@](N)(CCCCB(O)O)C(=O)O` [Example 67, (R)-2-amino-6-borono-2-(2-(ethyl(2-hydroxyethyl)amino)ethyl)hexanoic acid], the IC50 in experiment [1] fell in the range of 101 to 500 nM; in experiment [2] it was 1000 to 25000 nM; in experiment [3], 501 to 1500 nM.
Taken in the same sequence, the figures for `NC(CCCCB(O)O)(C(=O)O)[C@H]1C[C@@H](NCc2ccc(Cc3ccccc3)cc2)C1` (mixture of isomers) [Example 57, (S)-2-amino-2-((1s,3R)-3-(4-benzylbenzylamino)cyclobutyl)-6-boronohexanoic acid] were 26 to 100 nM, 26000 to 100000 nM and 26 to 100 nM.
In the same order, the values of `NC(CCCCB(O)O)(C(=O)O)[C@H]1C[C@@H](NCc2ccccc2N2CCOCC2)C1` (stereo partly drawn) [Example 13, (S)-2-amino-6-borono-2-((1s,3R)-3-(2-morpholinobenzylamino)cyclobutyl)hexanoic acid] are 26 to 100 nM, 26000 to 100000 nM and 26 to 100 nM.
On to `NC(CCCCB(O)O)(C(=O)O)[C@H]1C[C@@H](NCc2ccc(-c3ccc(Cl)cc3)cc2F)C1` (stereo partly drawn) [Example 49, (S)-2-amino-6-borono-2-((1s,3R)-3-((4′-chloro-3-fluorobiphenyl-4-yl)methylamino)cyclobutyl)hexanoic acid], for which the IC50 lay in the range of 0.1 to 25 nM in experiment [1], 1000 to 25000 nM in experiment [2] and 0.1 to 25 nM in experiment [3].
For the compound `NC(CCCCB(O)O)(C(=O)O)[C@H]1C[C@@H](NCc2c(F)cc(-c3ccc(Cl)cc3)cc2F)C1` (mixture of isomers) [Example 58, (S)-2-amino-6-borono-2-((1s,3R)-3-((4′-chloro-3,5-difluorobiphenyl-4-yl)methylamino)cyclobutyl)hexanoic acid], the figures for the IC50 in experiment [1], in experiment [2] and in experiment [3] were 26 to 100 nM, 1000 to 25000 nM and 26 to 100 nM, respectively.
Consider `NC(CCCCB(O)O)(C(=O)O)[C@H]1CC[C@H](NCc2ccc(-c3ccccc3)cc2)C1` (stereo in doubt) [Example 43], for which the values for the IC50 in experiment [1], in experiment [2] and in experiment [3] were 26 to 100 nM, 26000 to 100000 nM and 26 to 100 nM, respectively.
As for `NC(CCCCB(O)O)(C(=O)O)[C@H]1C[C@@H](NCc2ccc(-c3ccc(C(F)(F)F)cc3)cc2)C1` (stereo partly drawn) [Example 18, (S)-2-amino-6-borono-2-((1s,3R)-3-((4′-(trifluoromethyl)biphenyl-4-yl)methylamino)cyclobutyl)hexanoic acid], the IC50 was 0.1 to 25 nM in experiment [1], 1000 to 25000 nM in experiment [2] and 0.1 to 25 nM in experiment [3].
On to `CNC(CCCCB(O)O)(CCN1Cc2ccccc2C1)C(=O)O` (stereo not drawn) [Example 30, 6-borono-2-(2-(isoindolin-2-yl)ethyl)-2-(methylamino)hexanoic acid], for which the IC50 lay in the range of 101 to 500 nM in experiment [1], 1000 to 25000 nM in experiment [2] and 101 to 500 nM in experiment [3].

(Values after patent publication US9266908B2, “Inhibitors of arginase and their therapeutic applications” (MARS, INCORPORATED, priority 2011, dated 2016).)
